Source: PMC7664408, “Biaryl Sulfonamides Based on the 2-Azabicycloalkane Skeleton—Synthesis and Antiproliferative Activity” (Materials, 2020)
Where two headings read alike, the source gives them in different places.

Experiments:
MV4-11 = test: In vitro antiproliferative assay, MTT, 72 h; assay type: cell-based, human; conditions: biphenotypic B cell myelomonocytic leukemia MV4-11, 72 h, n.a. = not active in the range of concentrations used (up to 100 µM), read-out: IC50 [µM] ± SD [n = 5] MV4-11
BALB/3T3 = test: In vitro antiproliferative assay on normal fibroblasts, SRB, 72 h; assay type: cell-based, mouse; conditions: for IC50: normal mouse fibroblasts BALB/3T3, 72 h, SRB, n.a. = not active in the range of concentrations used (up to 100 µM), read-out: IC50 [µM] ± SD [n = 5] Balb/3T3; for selectivity: IC50 value for BALB/3T3 line times bigger than for leukemia cells MV4-11: IC50 BALB/3T3 versus IC50 MV4-11
Excerpt: (§1) The following human cancer cell lines, representing the most common types of cancer, were chosen for evaluation of the antiproliferative activity of the prepared sulfonamides: lung cancer (A549), breast cancer (MCF-7), colon adenocarcinoma (LoVo), and biphenotypic B cell myelomonocytic leukemia (MV4-11). As a reference, the normal mouse fibroblasts cell line (BALB/3T3) was applied. A549, LoVo and BALB/3T3 cell lines were purchased from the ATCC (American Type Culture Collection, Rockville, MD, USA), MCF-7 cell line—from EACC (The European Collection of Cell Cultures), and MV4-11 cell line was obtained from DSMZ (Leibniz Institute—German Collection of Microorganisms and Cell Culture, Braunschweig, Germany). All these lines were maintained at the Hirszfeld Institute of Immunology and Experimental Therapy (IIET) in Wrocław, Poland.
(§2) We used the following culture media: for A549 cell line: the mixture of RPMI 1640 and OptiMEM (1:1) medium (both from Gibco, Scotland, UK)), 2mM L-glutamine, 1mM sodium pyruvate (Sigma-Aldrich Chemie GmbH, Steinheim, Germany) and 5% fetal bovine serum (FBS; HyClone Laboratories, Logan, UT, USA). MCF-7 cells were cultured in Eagle’s medium (IIET, PAS, Wroclaw, Poland), 2mM L-glutamine and 10% of FBS supplemented with 0.8 mg/L of insulin (Sigma-Aldrich Chemie GmbH, Steinheim, Germany). For LoVo cell line, F12K medium was applied (American Type Culture Collection, Rockville, MD, USA-ATCC), with 5% FBS (HyClone Laboratories, Logan, UT, USA). MV4-11 cells were cultured in RPMI 1640/GlutaMax I medium (Gibco, Thermo Fisher Scientific, Leicestershire, UK) with 1 mM sodium pyruvate (Sigma-Aldrich Chemie GmbH, Steinheim, Germany) and 10% FBS (HyClone Laboratories). In case of BALB/3T3 cells, DMEM (Gibco, Thermo Fisher Scientific) supplemented with 2 mM L-glutamine and 5% FBS was used. Antibiotics: 100 U/mL penicillin (Polfa Tarchomin SA, Warsaw, Poland) and 100 µg/mL streptomycin (Sigma-Aldrich Chemie GmbH, Steinheim, Germany) were present in all the culture media; cells were cultured in a humid atmosphere containing 5% CO2 at 37 °C.
(§3) Twenty-four hours before addition of the tested compounds, each cell line was seeded in 96-well plastic plates (Sarstedt, Numbrecht, Germany) in an appropriate medium at 10^4 cells/well density, except MCF7 cell line: 0.75 × 10^4/well, and A549 cell line: 0.25 × 10^4/well. The studied cell lines were subjected to each of the tested sulfonamides at 4 different concentrations in the range of 100–0.1 µg/mL for 72 h. Cisplatin (Teva Pharmaceuticals, Poland) was used as a reference compound, and DMSO (Sigma-Aldrich Chemie GmbH, Steinheim, Germany) served as a solvent control at concentrations equivalent to these applied in the solutions of the tested sulfonamides. MTT assay was performed for leukemic cells, while sulforhodamine B assay (SRB) for the adherent cells.
(§4) After 72 h of incubation, cells were fixed in situ by gently adding of 50 µL per well of ice-cold 50% TCA (trichloroacetic acid, POCh, Gliwice, Poland) and were incubated at 4 °C for one hour. Each well was then washed five times with water, followed by addition of 50 µL of 0.4% solution of SRB (sulforhodamine B, Sigma-Aldrich Chemie GmbH, Steinheim, Germany) in 1% acetic acid (POCh, Gliwice, Poland), and plates were again incubated at RT for 0.5 h. Plates were washed five times with 1% acetic acid to remove the unbound dye. The stained cells were treated with 10 mM TRIS (Tris base, Sigma-Aldrich, Chemie GmbH, Steinheim, Germany). Absorbance at 540 nm in each well was read with Elisa plate reader (BioTek Synergy H4, Swindon, UK) using the Gen5 software.
(§5) The results are shown as average IC50 values (concentration of the compound causing inhibition of cell proliferation by 50%) ± standard deviation. IC50 values were determined using the Prolab-3 system based on Cheburator 0.4, a software developed by Nevozhay. At each concentration, sulfonamides were tested in triplicates in a single experiment. […]

LoVo = test: In vitro antiproliferative assay, SRB, 72 h; assay type: cell-based, human; conditions: colon adenocarcinoma LoVo, n.a. = not active in the range of concentrations used (up to 100 µM), read-out: IC50 [µM] ± SD [n = 5] LoVo
Excerpt: as §1, §2, §3, §4, §5

MCF-7 = test: In vitro antiproliferative assay, SRB, 72 h; assay type: cell-based, human; conditions: n.a. = not active in the range of concentrations used (up to 100 µM), read-out: IC50 [µM] ± SD [n = 5] MCF-7
Excerpt: as §1, §2, §3, §4, §5

A549 = test: In vitro antiproliferative assay, SRB, 72 h; assay type: cell-based, human; conditions: lung cancer A549, 72 h, n.a. = not active in the range of concentrations used (up to 100 µM), read-out: IC50 [µM] ± SD [n = 5] A549
Excerpt: as §1, §2, §3, §4, §5

[1] = Homo sapiens, MCF7, breast cancer MCF-7, 72 h

| Compound | IC50 (MV4-11; Homo sapiens) [µM] | IC50 (LoVo; Homo sapiens) [µM] | IC50 (MCF-7; [1]) [µM] | IC50 (A549; Homo sapiens) [µM] | melting point [°C] | IC50 (BALB/3T3) [µM] | selectivity: IC50 value for BALB/3T3 line times bigger than for leukemia cells MV4-11 (BALB/3T3) [times] | IC50 (MV4-11) [µM] | IC50 (LoVo) [µM] | IC50 (MCF-7; breast cancer MCF-7, 72 h) [µM] | IC50 (A549) [µM] |
| --- | --- | --- | --- | --- | --- | --- | --- | --- | --- | --- | --- |
| CC(c1ccccc1)N1CC(NS(=O)(=O)c2ccc(-c3ccccc3)cc2)C2CCC1C2 (centres unmarked) [Compound 9f] | 8.76 ± 3.45 | 14.5 ± 2.54 | 18.8 ± 3.25 | 13.6 ± 1.1 |  | 14.1 ± 2.63 |  |  |  |  |  |
| C[C@@H](c1ccccc1)N1C[C@@H](NS(=O)(=O)c2ccc(-c3ccc(F)cc3)cc2)[C@@H]2CC[C@H]1C2 [Compound 9i, 4’-fluoro-N-((1S,4S,5R)-2-((S)-1-phenylethyl)-2-azabicyclo[3.2.1]octan-4-yl)-[1,1’-biphenyl]-4-sulfonamide] | 12.3 ± 3.25 | 13.3 ± 1.55 | 12.7 ± 4.91 | 24.4 ± 0.9 | 139 to 140 | 14.3 ± 3.18 |  |  |  |  |  |
| C[C@@H](c1ccccc1)N1[C@H]2CC[C@H](C2)[C@@H]1CNS(=O)(=O)c1ccccc1 [Compound 11b, (1S,3R,4R)-N-((2-((S)-1-phenylethyl)-2-azabicyclo[2.2.1]heptan-3-yl)methyl) benzenesulfonamide] | 52.7 ± 14 |  |  |  | 107 to 109 |  |  |  |  |  |  |
| Cc1ccc(S(=O)(=O)NC[C@H]2[C@@H]3CC[C@@H](C3)N2[C@@H](C)c2ccccc2)cc1 [Compound 11c, (1S,3R,4R)-4-methyl-N-((2-((S)-1-phenylethyl)-2-azabicyclo[2.2.1]heptan-3-yl)methyl) benzenesulfonamide] | 29.6 ± 12.9 | 83.2 ± 11.8 |  |  | 124 to 127 |  |  |  |  |  |  |
| C[C@@H](c1ccccc1)N1[C@H]2CC[C@H](C2)[C@H]1CNS(=O)(=O)c1ccc(F)cc1 [Compound 11d, 4-fluoro-N-(((1S,3S,4R)-2-((S)-1-phenylethyl)-2-azabicyclo[2.2.1]heptan-3-yl)methyl)benzenesulfonamide] | 43.6 ± 14.5 | 92.2 ± 12.7 |  |  | 105 to 107 |  |  |  |  |  |  |
| CC(c1ccccc1)N1C2CCC(C2)C1CNS(=O)(=O)c1ccc(C(F)(F)F)cc1 (centres unmarked) [Compound 11e] | 16.1 ± 4.95 | 33.7 ± 5.13 | 39.1 ± 7.14 | 38.4 ± 2.61 |  | 37.5 ± 7.8 |  |  |  |  |  |
| COc1ccc(-c2ccc(S(=O)(=O)NCC3C4CCC(C4)N3C(C)c3ccccc3)cc2)cc1 (centres unmarked) [Compound 11h] | 13.8 ± 2.64 | 15.8 ± 2.26 | 22.4 ± 4.31 | 12.8 ± 1.38 |  | 12.4 ± 1.82 |  |  |  |  |  |
| CC(c1ccccc1)N1C2CCC(C2)C1CNS(=O)(=O)c1ccc(-c2ccc(F)cc2)cc1 (centres unmarked) [Compound 11i] | 11.2 ± 2.14 | 5.29 ± 2.56 | 10.3 ± 2.71 | 2.98 ± 1.38 |  | 13.1 ± 2.68 |  |  |  |  |  |
| C[C@@H](c1ccccc1)N1C[C@@H](CNS(=O)(=O)c2ccc(-c3ccc(F)cc3)cc2)[C@@H]2CC[C@H]1C2 [Compound 12i, 4’-fluoro-N-(((1S,4S,5R)-2-((S)-1-phenylethyl)-2-azabicyclo[3.2.1]octan-4-yl)methyl)-[1,1’-biphenyl]-4-sulfonamide] | 15.1 ± 3.16 | 15.1 ± 4.94 | 12.8 ± 4.03 | 16.4 ± 1.57 | 128 to 129 | 18.4 ± 8.39 |  |  |  |  |  |
| CC(c1ccccc1)N1C2CCC(C2)C1CN(CC1C2CCC(C2)N1C(C)c1ccccc1)S(=O)(=O)c1ccc(-c2ccccc2)cc1 (centres unmarked) [Compound 13f] | 56.1 ± 26.9 | 44.5 ± 10.9 |  | 84.4 ± 26.1 |  |  |  |  |  |  |  |
| C[C@@H](c1ccccc1)N1C(CN(C[C@H]2[C@@H]3CC[C@@H](C3)N2[C@@H](C)c2ccccc2)S(=O)(=O)c2ccc(-c3ccc(F)cc3)cc2)[C@@H]2CC[C@H]1C2 (stereo partly drawn) [Compound 13i, 4’-fluoro-N-(((1S,3R,4R)-2-((S)-1-phenylethyl)-2-azabicyclo[2.2.1]heptan-3-yl)methyl)-N-(((1S,4R)-2-((S)-1-phenylethyl)-2-azabicyclo[2.2.1]heptan-3-yl)methyl)-[1,1’-biphenyl]-4-sulfonamide] |  |  |  |  | 96 to 98 |  |  |  |  |  |  |
| N.N.[Cl][Pt][Cl] [cisplatin, reference compound] |  |  |  |  |  | 10.7 ± 3.3 |  | 1.78 ± 1.22 | 11.8 ± 3.87 | 10.3 ± 6.23 | 3.02 ± 1.79 |

Now from value to compound, other results behind:

| IC50 (MV4-11; Homo sapiens) [µM] | IC50 (LoVo; Homo sapiens) [µM] | IC50 (MCF-7; [1]) [µM] | IC50 (A549; Homo sapiens) [µM] | melting point [°C] | Compound | IC50 (BALB/3T3) [µM] | selectivity: IC50 value for BALB/3T3 line times bigger than for leukemia cells MV4-11 (BALB/3T3) [times] | IC50 (MV4-11) [µM] | IC50 (LoVo) [µM] | IC50 (MCF-7; breast cancer MCF-7, 72 h) [µM] | IC50 (A549) [µM] |
| --- | --- | --- | --- | --- | --- | --- | --- | --- | --- | --- | --- |
| 3.92 ± 1.74 | 11.8 ± 2.46 | 16.3 ± 2.11 | 9.13 ± 1.05 |  | COc1ccc(-c2ccc(S(=O)(=O)NC3CN(C(C)c4ccccc4)C4CCC3C4)cc2)cc1 (centres unmarked) [Compound 9h] | 15.1 ± 2.11 | ~3 |  |  |  |  |
| 8.28 ± 2.21 | 21.7 ± 3.52 | 18 ± 2.82 | 32.9 ± 1.36 | 155 | O=S(=O)(NC[C@H]1N[C@H]2CC[C@@H]1C2)c1ccc(-c2ccc(F)cc2)cc1 [Compound 10i, N-((1S,3S,4R)-2-azabicyclo[2.2.1]heptan-3-ylmethyl)-4’-fluoro-[1,1’-biphenyl]-4-sulfonamide] | 24.4 ± 2.75 | ~4 |  |  |  |  |
| 3.09 ± 1.56 | 19.3 ± 6.71 | 54 ± 16 | 7.66 ± 2.08 |  | CC(c1ccccc1)N1C2CCC(C2)C1CNS(=O)(=O)c1ccc(-c2ccccc2)cc1 (centres unmarked) [Compound 11f] | 38.8 ± 7.88 | > 10 |  |  |  |  |
| 4.26 ± 3.97 | 7.23 ± 16.2 | 33 ± 18.9 | 14.1 ± 4.77 |  | Cc1ccc(-c2ccc(S(=O)(=O)NCC3C4CCC(C4)N3C(C)c3ccccc3)cc2)cc1 (centres unmarked) [Compound 11g] | 45.3 ± 17.3 | > 10 |  |  |  |  |
| 7.15 ± 3.53 | 12.4 ± 2.44 | 17.3 ± 2.29 | 11.3 ± 0.93 | 95 | C[C@@H](c1ccccc1)N1[C@H]2CC[C@H](C2)[C@H]1CNS(=O)(=O)c1ccc(-c2ccccc2F)cc1 [Compound 11j, 2’-fluoro-N-(((1S,3S,4R)-2-((S)-1-phenylethyl)-2-azabicyclo[2.2.1]heptan-3-yl)methyl)-[1,1’-biphenyl]-4-sulfonamide] | 12.3 ± 1.88 |  |  |  |  |  |
